Measured values taken from patent US20250122191A1, “COMPOUNDS AS BCL-2 INHIBITORS” (Fochon Biosciences, Ltd, priority 2021, published 2025).

Tests used:
Assay type in all cases: cell-based
RS4;11-BCL-2 D103E cells = assay: Cell proliferation assay (MTS), RS4;11-BCL-2 D103E engineered cells; conditions: Homo sapiens, 72 h, read-out: RS4, 11 BCL2-D103E IC50
Source text: MTS testing kit was purchased from Promega (Madison, WI, USA). The RPMI-1640, Fetal bovine serum and Penicillin-Streptomycin were purchased from BI (Biological Industries, Beit Haemek, Israel). Puromycin was purchased from Beyotime (shanghai, China). Dimethyl sulfoxide (DMSO) was purchased from Sigma (St. Louis., MO, USA). RS4;11-BCL-2 G101V (Cobioer Lot. #: CBD2021063013P4), RS4;11-BCL-2 D103E (Cobioer Lot. #: CBD2021063013P4), RS4;11-BCL-2 D103Y (Cobioer Lot. #: CBD2022012101P4) and RS4;11-BCL-2 F104L (Cobioer Lot. #: CBD2021063014P4) cells were cultured in RPMI1640 supplemented with 1 ug/mL puromycin, 100 U/mL Penicillin-Streptomycin and 10% FBS.
To investigate whether a compound is able to inhibit the activity of BCL-2 mutation in cells, a mechanism-based assay using engineered cell lines stably overexpressing BCL-2 mutation (RS4;11-BCL-2 G101V, RS4;11-BCL-2 D103E, RS4;11-BCL-2 D103Y, and RS4;11-BCL-2 F104L) was developed. In this assay, the inhibition of BCL-2 mutation was reflected by the inhibition of cell proliferation of engineered RS4;11 cells. Cells were plated into 96-well plates at optimized cell density (RS4;11-BCL-2 G101V: 5000 cells/well; RS4;11-BCL-2 D103E: 7500 cells/well; RS4;11-BCL-2 D103Y: 7500 cells/well; RS4;11-BCL-2 F104L: 5000 cells/well). Plates were incubated at 37° C., with 5% CO2 for 4 h (RS4;11-BCL-2 G101V, RS4;11-BCL-2 F104L) and 24 h (RS4;11-BCL-2 D103E, RS4;11-BCL-2 D103Y), respectively. Compounds were serially diluted and added to the plates with the final concentrations of 10000, 3333.3, 1111.1, 370.4, 123.5, 41.2, 13.7, 4.6 and 1.5 nM. Plates were incubated at 37° C., with 5% CO2 for 120 h (RS4; 11-BCL-2 G101V, RS4; 11-BCL-2 F104L) and 72 h (RS4;11-BCL-2 D103E, RS4;11-BCL-2 D103Y), respectively. 20 μl MTS was added into each well and the plates were incubated at 37° C., with 5% CO2 exactly for 2 h. The absorbance was measured by a microplate reader at 490 nm. IC50 values were calculated using GraphPad Prism 8.0 software.

Toledo cells = assay: Cell proliferation assay (MTS), Toledo cells; conditions: Homo sapiens, 72 h
Summary of the method: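 Toledo cells (RPMI-1640, 10% FBS) seeded at 30000 cells/well, rested 4 h, then exposed 72 h at 37 °C, 5% CO2 to compound at nine final concentrations, 1.5–10000 nM. Viability by MTS (2 h), absorbance at 490 nm. IC50 from the concentration-response.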

RS4;11-BCL-2 G101V cells = assay: Cell proliferation assay (MTS), RS4;11-BCL-2 G101V engineered cells; conditions: Homo sapiens, 120 h, read-out: RS4, 11 BCL2-G101V IC50
Summary of the method: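 Proliferation IC50 in RS4;11 lines engineered with BCL-2 mutations, measured by MTS at 490 nm after 72 h (D103E, D103Y) or 120 h (G101V, F104L) compound treatment at 37 °C.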

Row | IC50 (RS4;11-BCL-2 D103E cells) [nM] | IC50 (RS4;11-BCL-2 G101V cells) [nM] | Compound | IC50 (Toledo cells) [nM]
1 | 2 |  | COc1cc(CN2CCN(C3CC4(CCN(c5ccc(C(=O)NS(=O)(=O)c6cnc(OC[C@H]7CC[C@](C)(O)CC7)c([N+](=O)[O-])c6)c(Oc6cc7c(F)c[nH]c7nc6OC)c5)CC4)C3)[C@H](c3ccccc3C(C)C)C2)ccn1 [Example 261, 2-((3-fluoro-6-methoxy-1H-pyrrolo[2,3-b]pyridin-5-yl)oxy)-N-((6-(((1r,4r)-4-hydroxy-4-methylcyclohexyl)methoxy)-5-nitropyridin-3-yl)sulfonyl)-4-(2-((R)-2-(2-isopropylphenyl)-4-((2-methoxypyridin-4-yl)methyl)piperazin-1-yl)-7-azaspiro [3.5]nonan-7-yl)benzamide] | 
2 | 1 |  | COc1nc2[nH]cc(F)c2cc1Oc1cc(N2CCC3(CC2)CC(N2CCN(Cc4ccnc5c4OCCO5)C[C@H]2c2ccccc2C(C)C)C3)ccc1C(=O)NS(=O)(=O)c1cnc(NC[C@H]2CC[C@](C)(O)CC2)c([N+](=O)[O-])c1 [Example 191, 4-(2-((R)-4-((2,3-dihydro-[1,4]dioxino[2,3-b]pyridin-8-yl)methyl)-2-(2-isopropylphenyl)piperazin-1-yl)-7-azaspiro[3.5]nonan-7-yl)-2-((3-fluoro-6-methoxy-1H-pyrrolo[2,3-b]pyridin-5-yl)oxy)-N-((6-((((1r,4r)-4-hydroxy-4-methylcyclohexyl)methyl)amino)-5-nitropyridin-3-yl)sulfonyl)benzamide] | 
3 | 1 |  | COc1nc2[nH]cc(F)c2cc1Oc1cc(N2CCC3(CC2)CC(N2CCN(C4CCC(O)CC4)C[C@H]2c2ccccc2C(C)C)C3)ccc1C(=O)NS(=O)(=O)c1cnc(NC[C@H]2CC[C@](C)(O)CC2)c([N+](=O)[O-])c1 (single isomer, unassigned) [Example 331] | 
4 | 1 |  | COc1nc2[nH]cc(F)c2cc1Oc1cc(N2CCC3(CC2)CC(N2CCN(Cc4ccnc5c4OC(C)CN5)C[C@H]2c2ccccc2C(C)C)C3)ccc1C(=O)NS(=O)(=O)c1cnc(NC[C@H]2CC[C@](C)(O)CC2)c([N+](=O)[O-])c1 (stereo partly drawn) [Example 196, 2-((3-fluoro-6-methoxy-1H-pyrrolo[2,3-b]pyridin-5-yl)oxy)-N-((6-((((1r,4r)-4-hydroxy-4-methylcyclohexyl)methyl)amino)-5-nitropyridin-3-yl)sulfonyl)-4-(2-((2R)-2-(2-isopropylphenyl)-4-((2-methyl-3,4-dihydro-2H-pyrido[3,2-b][1,4]oxazin-8-yl)methyl)piperazin-1-yl)-7-azaspiro[3.5]nonan-7-yl)benzamide] | 
5 | 1 |  | COc1nc2[nH]cc(F)c2cc1Oc1cc(N2CCC3(CC2)CC(N2CCN(Cc4ccnc(O)c4)C[C@H]2c2ccccc2C(C)C)C3)ccc1C(=O)NS(=O)(=O)c1cnc(NC[C@H]2CC[C@](C)(O)CC2)c([N+](=O)[O-])c1 [Example 199, 2-((3-fluoro-6-methoxy-1H-pyrrolo[2,3-b]pyridin-5-yl)oxy)-N-((6-((((1r,4r)-4-hydroxy-4-methylcyclohexyl)methyl)amino)-5-nitropyridin-3-yl)sulfonyl)-4-(2-((R)-4-((2-hydroxypyridin-4-yl)methyl)-2-(2-isopropylphenyl)piperazin-1-yl)-7-azaspiro[3.5]nonan-7-yl)benzamide] | 
6 |  | 1 | CCOc1nc2[nH]cc(F)c2cc1Oc1cc(N2CCC3(CC2)CC(N2CCN(Cc4cnn(C5CC5)c4)C[C@H]2c2ccccc2C(C)C)C3)ccc1C(=O)NS(=O)(=O)c1cnc(NC[C@H]2CC[C@](C)(O)CC2)c([N+](=O)[O-])c1 [Example 134, 4-(2-((R)-4-((1-cyclopropyl-1H-pyrazol-4-yl)methyl)-2-(2-isopropylphenyl)piperazin-1-yl)-7-azaspiro[3.5]nonan-7-yl)-2-((6-ethoxy-3-fluoro-1H-pyrrolo[2,3-b]pyridin-5-yl)oxy)-N-((6-((((1r,4r)-4-hydroxy-4-methylcyclohexyl)methyl)amino)-5-nitropyridin-3-yl)sulfonyl)benzamide] | 1
7 |  | 1 | CCOc1nc2[nH]cc(F)c2cc1Oc1cc(N2CCC3(CC2)CC(N2CCN(Cc4ccc(F)cc4)C[C@H]2c2ccccc2C(C)C)C3)ccc1C(=O)NS(=O)(=O)c1cnc(NC[C@H]2CC[C@](C)(O)CC2)c([N+](=O)[O-])c1 [Example 234, 2-((6-ethoxy-3-fluoro-1H-pyrrolo[2,3-b]pyridin-5-yl)oxy)-4-(2-((R)-4-(4-fluorobenzyl)-2-(2-isopropylphenyl)piperazin-1-yl)-7-azaspiro[3.5]nonan-7-yl)-N-((6-((((1r,4r)-4-hydroxy-4-methylcyclohexyl)methyl)amino)-5-nitropyridin-3-yl)sulfonyl)benzamide] | 1
8 | 1 |  | COc1nc2[nH]cc(F)c2cc1Oc1cc(N2CCC3(CC2)CC(N2CCN(Cc4ccnc(C(C)(F)F)c4)C[C@H]2c2ccccc2C(C)C)C3)ccc1C(=O)NS(=O)(=O)c1cnc(NC[C@H]2CC[C@](C)(O)CC2)c([N+](=O)[O-])c1 [Example 149, 4-(2-((R)-4-((2-(1,1-difluoroethyl)pyridin-4-yl)methyl)-2-(2-isopropylphenyl)piperazin-1-yl)-7-azaspiro[3.5]nonan-7-yl)-2-((3-fluoro-6-methoxy-1H-pyrrolo[2,3-b]pyridin-5-yl)oxy)-N-((6-((((1r,4r)-4-hydroy-4-methylcyclohexyl)methyl)amino)-5-nitropyridin-3-yl)sulfonyl)benzamide] | 
9 |  | 1 | CCOc1nc2[nH]cc(F)c2cc1Oc1cc(N2CCC3(CC2)CC(N2CCN(Cc4ccc(Cl)cc4)C[C@H]2c2ccccc2C(C)C)C3)ccc1C(=O)NS(=O)(=O)c1cnc(NC[C@H]2CC[C@](C)(O)CC2)c([N+](=O)[O-])c1 [Example 231, 4-(2-((R)-4-(4-chlorobenzyl)-2-(2-isopropylphenyl)piperazin-1-yl)-7-azaspiro[3.5]nonan-7-yl)-2-((6-ethoxy-3-fluoro-1H-pyrrolo[2,3-b]pyridin-5-yl)oxy)-N-((6-((((1r,4r)-4-hydroxy-4-methylcyclohexyl)methyl)amino)-5-nitropyridin-3-yl)sulfonyl)benzamide] | 1
10 |  | 1 | COc1nc2[nH]cc(F)c2cc1Oc1cc(N2CCC3(CC2)CC(N2CCN(Cc4ccc5c(c4)CCO5)C[C@H]2c2ccccc2C(C)C)C3)ccc1C(=O)NS(=O)(=O)c1cnc(NC[C@H]2CC[C@](C)(O)CC2)c([N+](=O)[O-])c1 [Example 323, 4-(2-((R)-4-((2,3-dihydrobenzofuran-5-yl)methyl)-2-(2-isopropylphenyl)piperazin-1-yl)-7-azaspiro[3.5]nonan-7-yl)-2-((3-fluoro-6-methoxy-1H-pyrrolo[2,3-b]pyridin-5-yl)oxy)-N-((6-((((1r,4r)-4-hydroxy-4-methylcyclohexyl)methyl)amino)-5-nitropyridin-3-yl)sulfonyl)benzamide] | 1
11 |  | 1 | CC(C)c1ccccc1[C@@H]1CN(Cc2ccc(F)c(F)c2)CCN1C1CC2(CCN(c3ccc(C(=O)NS(=O)(=O)c4cnc(NC[C@H]5CC[C@](C)(O)CC5)c([N+](=O)[O-])c4)c(Oc4cnc5[nH]cc(F)c5c4)c3)CC2)C1 [Example 72, 4-(2-((R)-4-(3,4-difluorobenzyl)-2-(2-isopropylphenyl)piperazin-1-yl)-7-azaspiro[3.5]nonan-7-yl)-2-((3-fluoro-1H-pyrrolo[2,3-b]pyridin-5-yl)oxy)-N-((6-((((1r,4r)-4-hydroxy-4-methylcyclohexyl)methyl)amino)-5-nitropyridin-3-yl)sulfonyl)benzamide] | 1
